The record followed here is the supplement of paper PMC11208160.

The data set in a line: recombinant UMI read abundance after kanamycin selection (control-corrected) (log10(CPM+1)); higher = more efficient recombination; extreme values may be limits of the assay; sequences stand for … in AGTGCAGAGAAAATCGGCCAGTTTTCTCTGCCTGCAGTCCGCATGCCGTGGGACCCCTTGGGTTCTAACCTGTTGCCTAGATTTATGCAGCGGACTGCCTTTCTCCCAAAGTGATAAACCGG…AGGTTGGTTTCACT; site = the 11-nt donor. The essentials: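 Under IPTG (0.07 mM) plus kanamycin, or without selection, Escherichia coli carrying a UMI-tagged donor and donor-binding-loop pair library and a target plasmid for the IS621 bridge recombinase were plated in two replicates. Recombinant UMIs were PCR-amplified across the donor–target junction and sequenced. Counts were converted to CPM, averaged over replicates, scaled by control-derived factors and reported as log10(CPM+1).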
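Note: IS621 bridge recombinase in Escherichia coli cells against a fixed T5 target plasmid.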

As for “GCCACGCCATGGACCGGTTTTCCCGGTAATCCGTATTTGGA (site GCCACGCCTTC)”, the “recombinant UMI read abundance (log10)” value was determined as 0.0144.
Under “GCCACGCCATGGACCGGTTTTCCCGGTAATCCGTATTTGGA (site GCCACGCCTTG)” stands 0; under “GCCACGCCATGGACCGGTTTTCCCGGTAATCCGTATTTGGA (site GCCACGCCTTT)”, 0.00923.
The value for “GCCACGCCATGGACCGGTTTTCCCGGTAATCCGTATTTGTC (site GCCACGCCTAA)” was 0; that for “GCCACGCCATGGACCGGTTTTCCCGGTAATCCGTATTTGTC (site GCCACGCCTCA)” was 0.015.
The value for “GCCACGCCATGGACCGGTTTTCCCGGTAATCCGTATTTGTC (site GCCACGCCTGA)” was 1.03; that for “GCCACGCCATGGACCGGTTTTCCCGGTAATCCGTATTTGTC (site GCCACGCCTTA)” was 0.0128; that for “GCCACGCCATGGACCGGTTTTCCCGGTAATCCGTATTTGTG (site GCCACGCCTAA)” was 0.0114.
For the sequence “GCCACGCCATGGACCGGTTTTCCCGGTAATCCGTATTTGTG (site GCCACGCCTCA)”, the “recombinant UMI read abundance (log10)” value is 0.0225.
In the case of “GCCACGCCATGGACCGGTTTTCCCGGTAATCCGTATTTGTG (site GCCACGCCTGA)”, the “recombinant UMI read abundance (log10)” value amounted to 0.
The value for “GCCACGCCATGGACCGGTTTTCCCGGTAATCCGTATTTGTG (site GCCACGCCTTA)” was 0.0106; that for “GCCACGTCATGGACCGGTTTTCCCGGTAATCCGTATTTGCA (site GCCACGTCTTG)” was 2.76.
With “GCCCACACATGGACCGGTTTTCCCGGTAATCCGTATTTGTA (site ACCCACACTTA)”, the “recombinant UMI read abundance (log10)” value was 1.08.
On to “GCCCACACATGGACCGGTTTTCCCGGTAATCCGTATTTGTA (site CCCCACACTTA)”, for which the “recombinant UMI read abundance (log10)” value came to 1.37.
Under “GCCCACACATGGACCGGTTTTCCCGGTAATCCGTATTTGTA (site GCCCACACTTA)” stands 1.78; under “GCCCACACATGGACCGGTTTTCCCGGTAATCCGTATTTGTA (site TCCCACACTTA)”, 1.02; under “GCCCACCCATGGACCGGTTTTCCCGGTAATCCGTATTTGTT (site GACCACCCTAA)”, 0.0217.
Regarding “GCCCACCCATGGACCGGTTTTCCCGGTAATCCGTATTTGTT (site GCCCACCCTAA)”, the “recombinant UMI read abundance (log10)” value turned out to be 0.051.
The value for “GCCCACCCATGGACCGGTTTTCCCGGTAATCCGTATTTGTT (site GGCCACCCTAA)” was 0.0315; that for “GCCCACCCATGGACCGGTTTTCCCGGTAATCCGTATTTGTT (site GTCCACCCTAA)” was 0.0135; that for “GCCCACGCATGGACCGGTTTTCCCGGTAATCCGTATTTGGA (site GCCCACGCTTC)” was 0.94.
Under “GCCCGAGCATGGACCGGTTTTCCCGGTAATCCGTATTTGGA (site GCCCGAGCTTC)” stands 0.73; under “GCCCGCACATGGACCGGTTTTCCCGGTAATCCGTATTTGTG (site GCCCGCACTCA)”, 0.0672; under “GCCCGCTCATGGACCGGTTTTCCCGGTAATCCGTATTTGAG (site GCCCGCTCTCT)”, 0.704.
“GCCCGTTCATGGACCGGTTTTCCCGGTAATCCGTATTTGAG (site GCCCGTTCTCT)”: the “recombinant UMI read abundance (log10)” value was determined as 2.23.
For “GCCCTCCCATGGACCGGTTTTCCCGGTAATCCGTATTTGTG (site GCCCTCCCTCA)”, the “recombinant UMI read abundance (log10)” value is 0.0428.
For “GCCCTTTCATGGACCGGTTTTCCCGGTAATCCGTATTTGCT (site GCCCTTTCTAG)”, the “recombinant UMI read abundance (log10)” value was found to be 1.67.
The value for “GCCGAACCATGGACCGGTTTTCCCGGTAATCCGTATTTGGG (site GCCGAACCTCC)” was 0.0289; that for “GCCGATGCATGGACCGGTTTTCCCGGTAATCCGTATTTGGC (site GCCGATGCTGC)” was 0.846.
In the case of “GCCGCGCCATGGACCGGTTTTCCCGGTAATCCGTATTTGTA (site GCCACGCCTTA)”, the “recombinant UMI read abundance (log10)” value worked out at 0.00924.
The value for “GCCGCGCCATGGACCGGTTTTCCCGGTAATCCGTATTTGTA (site GCCCCGCCTTA)” was 0.00531; that for “GCCGCGCCATGGACCGGTTTTCCCGGTAATCCGTATTTGTA (site GCCGCGCCTTA)” was 0.234; that for “GCCGCGCCATGGACCGGTTTTCCCGGTAATCCGTATTTGTA (site GCCTCGCCTTA)” was 0.18.
The value for “GCCGCTCCATGGACCGGTTTTCCCGGTAATCCGTATTTGGT (site GCCGCTCCTAC)” was 0.0147; that for “GCCGGTCCATGGACCGGTTTTCCCGGTAATCCGTATTTGCA (site ACCGGTCCTTG)” was 0; that for “GCCGGTCCATGGACCGGTTTTCCCGGTAATCCGTATTTGCA (site CCCGGTCCTTG)” was 0.
Turning to “GCCGGTCCATGGACCGGTTTTCCCGGTAATCCGTATTTGCA (site GCCGGTCCTTG)”, the “recombinant UMI read abundance (log10)” value stood at 0.
Regarding “GCCGGTCCATGGACCGGTTTTCCCGGTAATCCGTATTTGCA (site TCCGGTCCTTG)”, the “recombinant UMI read abundance (log10)” value was found to be 0.
For the sequence “GCCGTATCATGGACCGGTTTTCCCGGTAATCCGTATTTGCA (site ACAGTATCTTG)”, the “recombinant UMI read abundance (log10)” value came to 2.87.
Regarding “GCCGTATCATGGACCGGTTTTCCCGGTAATCCGTATTTGCA (site GCCGTATCTTG)”, the “recombinant UMI read abundance (log10)” value was determined as 2.22.
The value for “GCCTAAACATGGACCGGTTTTCCCGGTAATCCGTATTTGGT (site GCCTAAACTAC)” was 1.07; that for “GCCTAATCATGGACCGGTTTTCCCGGTAATCCGTATTTGGC (site GCCTAATCTGC)” was 0.963.
With “GCCTATCCATGGACCGGTTTTCCCGGTAATCCGTATTTGAC (site GCCTATCCTGT)”, the “recombinant UMI read abundance (log10)” value amounted to 0.
The value for “GCCTCGCCATGGACCGGTTTTCCCGGTAATCCGTATTTGGT (site GCCTCGCCTAC)” was 0; that for “GCCTCTACATGGACCGGTTTTCCCGGTAATCCGTATTTGCC (site GCCTCTACTGG)” was 1.37.
Turning to “GCCTGGCCATGGACCGGTTTTCCCGGTAATCCGTATTTGCT (site GCCTGGCCTAG)”, the “recombinant UMI read abundance (log10)” value stood at 0.
The value for “GCCTGTGCATGGACCGGTTTTCCCGGTAATCCGTATTTGAC (site GCCTGTGCTGT)” was 0.472; that for “GCGAAAACATGGACCGGTTTTCCCGGTAATCCGTATTTGCA (site GCGAAAACTAG)” was 0.
The value for “GCGAAAACATGGACCGGTTTTCCCGGTAATCCGTATTTGCA (site GCGAAAACTCG)” was 1.4; that for “GCGAAAACATGGACCGGTTTTCCCGGTAATCCGTATTTGCA (site GCGAAAACTGG)” was 0.
As to “GCGAAAACATGGACCGGTTTTCCCGGTAATCCGTATTTGCA (site GCGAAAACTTG)”, the “recombinant UMI read abundance (log10)” value was 0.929.
Take “GCGAAATCATGGACCGGTTTTCCCGGTAATCCGTATTTGCT (site GCGAAAACTAG)”: the “recombinant UMI read abundance (log10)” value was 0.
